Earlier results as cited in patent publication US20080287519A1, “Amorphous eletriptan hydrobromide and process for preparing it and other forms of eletriptan hydrobromide” (priority 2007, published 2008).

Tests used:
5-HT5A receptor = 5-HT5A receptor (Homo sapiens, UniProt P47898)
[1] = test system: adrenergic alpha1 receptors
5-HT1D receptor = 5-HT1D receptor (Homo sapiens, UniProt P28221)
5-HT2B receptor = 5-HT2B receptor (Homo sapiens, UniProt P41595)
[2] = test system: adrenergic beta receptors
[3] = biological target: dopaminergic D2 receptors (Homo sapiens, UniProt P14416)
Sequence of dopaminergic D2 receptors (P14416 whole entry): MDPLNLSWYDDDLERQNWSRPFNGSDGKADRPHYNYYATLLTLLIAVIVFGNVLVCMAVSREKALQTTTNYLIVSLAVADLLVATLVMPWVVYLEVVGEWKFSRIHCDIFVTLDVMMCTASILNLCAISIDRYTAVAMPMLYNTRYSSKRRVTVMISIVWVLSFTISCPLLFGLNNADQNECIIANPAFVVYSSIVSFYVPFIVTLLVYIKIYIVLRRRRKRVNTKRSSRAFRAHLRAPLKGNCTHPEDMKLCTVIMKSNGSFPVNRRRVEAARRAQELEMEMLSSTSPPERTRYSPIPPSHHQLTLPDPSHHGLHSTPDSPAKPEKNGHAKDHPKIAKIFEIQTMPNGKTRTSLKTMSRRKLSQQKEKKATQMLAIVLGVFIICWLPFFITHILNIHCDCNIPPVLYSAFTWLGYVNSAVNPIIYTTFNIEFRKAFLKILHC

5-HT7 receptor = 5-HT7 receptor (Homo sapiens, UniProt P34969)
Sequence of 5-HT7 receptor (P34969 whole entry): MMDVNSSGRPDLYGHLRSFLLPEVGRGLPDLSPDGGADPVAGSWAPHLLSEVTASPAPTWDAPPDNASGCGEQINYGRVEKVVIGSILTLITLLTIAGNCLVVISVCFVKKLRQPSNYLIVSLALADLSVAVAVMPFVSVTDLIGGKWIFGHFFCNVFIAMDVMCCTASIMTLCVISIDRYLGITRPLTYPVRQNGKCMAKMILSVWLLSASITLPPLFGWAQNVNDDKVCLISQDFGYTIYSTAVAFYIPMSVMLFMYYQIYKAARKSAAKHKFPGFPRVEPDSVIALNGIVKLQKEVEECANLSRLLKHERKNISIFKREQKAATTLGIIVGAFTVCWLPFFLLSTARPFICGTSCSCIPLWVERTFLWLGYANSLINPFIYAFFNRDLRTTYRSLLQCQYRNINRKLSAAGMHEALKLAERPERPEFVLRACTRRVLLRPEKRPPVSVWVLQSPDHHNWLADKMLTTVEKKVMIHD

5-HT4 receptor = 5-HT4 receptor (Homo sapiens, UniProt Q13639)
Sequence of 5-HT4 receptor (Q13639 whole entry): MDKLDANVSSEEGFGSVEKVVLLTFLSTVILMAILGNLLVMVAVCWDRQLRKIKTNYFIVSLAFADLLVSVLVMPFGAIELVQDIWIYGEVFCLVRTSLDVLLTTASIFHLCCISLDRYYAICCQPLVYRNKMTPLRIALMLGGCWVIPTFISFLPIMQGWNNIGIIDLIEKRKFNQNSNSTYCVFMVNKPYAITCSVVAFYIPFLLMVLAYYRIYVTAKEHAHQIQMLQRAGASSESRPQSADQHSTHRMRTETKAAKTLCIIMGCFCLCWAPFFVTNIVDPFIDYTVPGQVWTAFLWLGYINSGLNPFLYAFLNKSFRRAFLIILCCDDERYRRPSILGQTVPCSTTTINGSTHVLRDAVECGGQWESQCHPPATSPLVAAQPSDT

[4] = test system: adrenergic alpha2 receptors
5-HT1A receptor = biological target: T1, 5-HT1A receptor (Homo sapiens, UniProt P08908)
T1 sequence (P08908 1-422): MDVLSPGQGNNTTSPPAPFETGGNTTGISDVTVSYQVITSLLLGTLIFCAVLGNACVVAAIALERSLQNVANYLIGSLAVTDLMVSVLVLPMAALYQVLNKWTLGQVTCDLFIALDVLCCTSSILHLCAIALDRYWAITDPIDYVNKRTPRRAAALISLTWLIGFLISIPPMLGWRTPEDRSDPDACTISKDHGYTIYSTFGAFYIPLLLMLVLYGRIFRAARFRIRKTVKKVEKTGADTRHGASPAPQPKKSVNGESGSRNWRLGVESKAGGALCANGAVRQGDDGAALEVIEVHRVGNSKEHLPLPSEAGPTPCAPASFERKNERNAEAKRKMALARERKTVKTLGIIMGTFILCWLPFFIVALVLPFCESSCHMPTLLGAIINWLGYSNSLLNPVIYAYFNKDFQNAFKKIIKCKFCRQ

[5] = biological target: dopaminergic D1 receptors (Homo sapiens, UniProt P21728)
Sequence of dopaminergic D1 receptors (P21728 whole entry): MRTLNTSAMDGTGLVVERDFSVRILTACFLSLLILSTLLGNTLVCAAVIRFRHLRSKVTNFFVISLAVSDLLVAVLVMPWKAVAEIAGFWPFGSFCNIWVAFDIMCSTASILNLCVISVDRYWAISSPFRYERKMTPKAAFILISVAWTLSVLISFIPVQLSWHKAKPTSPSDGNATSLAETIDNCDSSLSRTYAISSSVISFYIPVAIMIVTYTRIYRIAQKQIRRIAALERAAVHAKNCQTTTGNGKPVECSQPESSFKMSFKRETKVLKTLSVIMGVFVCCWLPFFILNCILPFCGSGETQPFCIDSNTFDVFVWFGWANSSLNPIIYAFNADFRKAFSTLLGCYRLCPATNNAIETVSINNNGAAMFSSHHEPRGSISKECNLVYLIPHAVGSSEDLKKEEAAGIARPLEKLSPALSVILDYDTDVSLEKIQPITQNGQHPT

5-HT1F receptor = biological target: T2, 5-HT1F receptor (Homo sapiens, UniProt P30939)
T2 sequence (P30939 1-366): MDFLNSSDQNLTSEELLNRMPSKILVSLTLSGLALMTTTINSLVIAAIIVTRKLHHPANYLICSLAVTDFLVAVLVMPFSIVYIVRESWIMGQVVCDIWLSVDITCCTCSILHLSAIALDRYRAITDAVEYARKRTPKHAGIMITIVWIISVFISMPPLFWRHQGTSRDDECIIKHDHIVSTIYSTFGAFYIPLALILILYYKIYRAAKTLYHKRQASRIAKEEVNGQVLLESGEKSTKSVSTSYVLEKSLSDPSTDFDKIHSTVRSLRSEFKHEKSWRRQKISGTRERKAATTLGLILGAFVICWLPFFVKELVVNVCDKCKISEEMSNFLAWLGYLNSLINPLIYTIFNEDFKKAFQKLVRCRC

5-HT6 receptor = 5-HT6 receptor (Homo sapiens, UniProt P50406)
Sequence of 5-HT6 receptor (P50406 whole entry): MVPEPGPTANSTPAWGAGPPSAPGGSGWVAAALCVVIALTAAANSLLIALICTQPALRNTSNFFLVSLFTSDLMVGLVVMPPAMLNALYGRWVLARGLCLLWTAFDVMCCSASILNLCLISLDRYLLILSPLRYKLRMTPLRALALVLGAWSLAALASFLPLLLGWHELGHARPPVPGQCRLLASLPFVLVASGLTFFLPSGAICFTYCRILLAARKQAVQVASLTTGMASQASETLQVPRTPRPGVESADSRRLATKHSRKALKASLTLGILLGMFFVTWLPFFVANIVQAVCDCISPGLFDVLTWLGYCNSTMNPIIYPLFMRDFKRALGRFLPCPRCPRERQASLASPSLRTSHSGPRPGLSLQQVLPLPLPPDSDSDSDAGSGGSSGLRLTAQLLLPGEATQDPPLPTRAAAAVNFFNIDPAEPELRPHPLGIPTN

5-HT2C receptor = biological target: T3, 5-HT2C receptor (Homo sapiens, UniProt P28335)
T3 sequence (P28335 33-458): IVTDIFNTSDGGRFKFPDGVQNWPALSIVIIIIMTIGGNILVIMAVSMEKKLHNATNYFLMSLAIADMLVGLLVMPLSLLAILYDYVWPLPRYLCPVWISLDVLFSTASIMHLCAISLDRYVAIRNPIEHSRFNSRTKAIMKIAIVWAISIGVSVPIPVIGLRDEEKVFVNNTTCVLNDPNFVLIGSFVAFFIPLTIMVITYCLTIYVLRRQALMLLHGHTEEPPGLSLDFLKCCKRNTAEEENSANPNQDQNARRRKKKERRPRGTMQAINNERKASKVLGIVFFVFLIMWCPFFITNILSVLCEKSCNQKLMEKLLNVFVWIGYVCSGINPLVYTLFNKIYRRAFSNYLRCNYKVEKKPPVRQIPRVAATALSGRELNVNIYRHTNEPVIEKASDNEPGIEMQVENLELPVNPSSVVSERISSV

5-HT2A receptor = 5-HT2A receptor (Homo sapiens, UniProt P28223)
Sequence of 5-HT2A receptor (P28223 whole entry): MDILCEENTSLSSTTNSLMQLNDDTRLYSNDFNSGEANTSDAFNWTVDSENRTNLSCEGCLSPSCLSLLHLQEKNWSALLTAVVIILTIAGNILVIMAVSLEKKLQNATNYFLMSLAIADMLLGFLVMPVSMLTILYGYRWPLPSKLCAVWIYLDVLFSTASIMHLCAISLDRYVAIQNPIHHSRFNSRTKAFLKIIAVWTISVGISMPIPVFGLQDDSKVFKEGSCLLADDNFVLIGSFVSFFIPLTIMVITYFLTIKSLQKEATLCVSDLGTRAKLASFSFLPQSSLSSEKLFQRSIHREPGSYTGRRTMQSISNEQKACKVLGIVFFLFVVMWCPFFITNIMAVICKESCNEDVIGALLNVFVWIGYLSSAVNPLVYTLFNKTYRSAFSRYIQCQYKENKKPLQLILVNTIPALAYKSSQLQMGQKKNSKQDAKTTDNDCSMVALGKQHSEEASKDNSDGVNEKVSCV

5-HT1B receptor = 5-HT1B receptor (Homo sapiens, UniProt P28222)
Sequence of 5-HT1B receptor (P28222 whole entry): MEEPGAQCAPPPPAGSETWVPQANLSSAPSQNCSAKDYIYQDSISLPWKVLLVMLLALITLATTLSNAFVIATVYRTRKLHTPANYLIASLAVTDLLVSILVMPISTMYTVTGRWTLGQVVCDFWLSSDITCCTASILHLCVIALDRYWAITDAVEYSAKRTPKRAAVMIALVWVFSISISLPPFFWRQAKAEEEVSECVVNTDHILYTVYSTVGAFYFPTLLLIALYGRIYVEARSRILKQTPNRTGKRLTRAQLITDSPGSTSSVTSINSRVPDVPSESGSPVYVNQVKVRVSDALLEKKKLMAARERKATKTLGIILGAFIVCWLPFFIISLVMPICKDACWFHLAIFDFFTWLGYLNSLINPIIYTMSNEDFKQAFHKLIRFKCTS

5-HT1E receptor = 5-HT1E receptor (Homo sapiens, UniProt P28566)
Sequence of 5-HT1E receptor (P28566 whole entry): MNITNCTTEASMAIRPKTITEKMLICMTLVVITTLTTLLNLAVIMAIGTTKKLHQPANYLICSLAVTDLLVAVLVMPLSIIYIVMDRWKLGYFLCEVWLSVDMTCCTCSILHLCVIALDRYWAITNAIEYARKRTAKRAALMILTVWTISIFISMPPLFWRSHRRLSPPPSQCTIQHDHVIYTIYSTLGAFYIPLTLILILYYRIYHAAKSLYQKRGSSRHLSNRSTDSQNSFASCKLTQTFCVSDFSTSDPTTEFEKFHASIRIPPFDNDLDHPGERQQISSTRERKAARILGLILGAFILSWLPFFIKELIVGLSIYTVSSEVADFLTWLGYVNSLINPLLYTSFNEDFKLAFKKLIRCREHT

Sequence of 5-HT2B receptor (P41595 whole entry): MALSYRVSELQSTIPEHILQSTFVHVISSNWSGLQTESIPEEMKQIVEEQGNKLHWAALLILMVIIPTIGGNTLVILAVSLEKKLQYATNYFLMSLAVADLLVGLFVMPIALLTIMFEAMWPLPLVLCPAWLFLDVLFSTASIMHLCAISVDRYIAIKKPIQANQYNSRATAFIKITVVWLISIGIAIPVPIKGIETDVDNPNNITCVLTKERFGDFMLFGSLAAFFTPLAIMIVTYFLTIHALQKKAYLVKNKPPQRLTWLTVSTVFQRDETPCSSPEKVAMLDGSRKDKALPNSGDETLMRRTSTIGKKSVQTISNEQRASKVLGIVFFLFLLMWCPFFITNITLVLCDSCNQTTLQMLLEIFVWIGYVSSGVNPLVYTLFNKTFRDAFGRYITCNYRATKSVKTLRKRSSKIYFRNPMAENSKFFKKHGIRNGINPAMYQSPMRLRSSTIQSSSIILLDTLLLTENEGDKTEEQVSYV
Sequence of 5-HT5A receptor (P47898 whole entry): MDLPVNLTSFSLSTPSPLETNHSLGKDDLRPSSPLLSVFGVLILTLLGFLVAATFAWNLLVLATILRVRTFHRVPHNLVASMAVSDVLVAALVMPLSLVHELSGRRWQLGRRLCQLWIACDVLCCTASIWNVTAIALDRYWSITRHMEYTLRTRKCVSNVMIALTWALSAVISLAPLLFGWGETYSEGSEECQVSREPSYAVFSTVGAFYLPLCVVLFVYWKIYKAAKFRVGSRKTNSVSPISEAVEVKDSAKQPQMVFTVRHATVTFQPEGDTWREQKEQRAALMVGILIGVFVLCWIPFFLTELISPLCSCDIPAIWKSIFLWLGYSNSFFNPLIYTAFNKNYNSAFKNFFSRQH
Sequence of 5-HT1D receptor (P28221 whole entry): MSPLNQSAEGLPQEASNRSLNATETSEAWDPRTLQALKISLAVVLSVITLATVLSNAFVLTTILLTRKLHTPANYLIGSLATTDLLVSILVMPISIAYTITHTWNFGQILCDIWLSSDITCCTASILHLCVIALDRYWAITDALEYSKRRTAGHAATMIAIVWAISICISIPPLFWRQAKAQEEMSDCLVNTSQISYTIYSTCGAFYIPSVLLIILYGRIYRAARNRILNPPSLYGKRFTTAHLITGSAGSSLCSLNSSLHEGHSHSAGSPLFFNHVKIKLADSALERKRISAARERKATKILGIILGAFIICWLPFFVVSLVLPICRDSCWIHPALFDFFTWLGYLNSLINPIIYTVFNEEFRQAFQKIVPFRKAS

affinity (5-HT5A receptor): little or no affinity
affinity (5-HT1D receptor): high affinity
affinity (5-HT2B receptor): modest affinity
affinity (5-HT7 receptor): modest affinity
affinity (5-HT4 receptor): little or no affinity
affinity (5-HT1A receptor): modest affinity
affinity (5-HT1F receptor): high affinity
affinity (5-HT6 receptor): little or no affinity
affinity (5-HT2C receptor): little or no affinity
affinity (5-HT2A receptor): little or no affinity
affinity (5-HT1B receptor): high affinity
affinity (5-HT3 receptor): little or no affinity
affinity (5-HT1E receptor): modest affinity
SMILES: CN1CCC[C@@H]1Cc1c[nH]c2ccc(CCS(=O)(=O)c3ccccc3)cc12 [Eletriptan, 3-(N-methyl-2(R)-pyrrolidinylmethyl)-5-(2-phenylsulphonylethyl)-1H-indole]
affinity or pharmacological activity [1]: no significant affinity or pharmacological activity
affinity or pharmacological activity (opioid receptors): no significant affinity or pharmacological activity
affinity or pharmacological activity [2]: no significant affinity or pharmacological activity
affinity or pharmacological activity [3]: no significant affinity or pharmacological activity
affinity or pharmacological activity [4]: no significant affinity or pharmacological activity
affinity or pharmacological activity [5]: no significant affinity or pharmacological activity
affinity or pharmacological activity (muscarinic receptors): no significant affinity or pharmacological activity
